Test results reported in patent US11098042B2, “Inhibitors of influenza virus replication and uses thereof” (SUNSHINE LAKE PHARMA CO., LTD., priority 2017, dated 2021).
pEC50: −log10 of the molar value.

Tests used:
virus H1N1 A/Weiss/43 = assay: microbe, parasite or virus in culture; format: cell-based; details: Influenza A virus, 120 h; inhibition of CPE of H1N1 A/Weiss/43 in MDCK cells, 5 days, CCK-8
in vivo = details: Sprague-Dawley (SD), rat
Protocol: Pharmacokinetic characteristics of the compounds of the invention in SD rat were evaluated. The compounds disclosed herein were administered in form of a saline solution containing 5% DMSO, 5% Kolliphor HS 15 and 90% Saline. For intravenous administration (iv), the animals were administered with a dose of 1 mg/kg, and blood samples (0.3 mL) were collected at the time points of 0.083, 0.25, 0.5, 1.0, 2.0, 5.0, 7.0 and 24 h after drug administration, then each blood sample was processed to separate plasma by centrifugation at 3000 rpm or 4000 rpm for 10 minutes. […] Plasma samples were collected and stored at −20° C. or −70° C. until LC/MS/MS analysis.

Row | SMILES | pEC50 (virus H1N1 A/Weiss/43) | other results
1 | O=C(O)C1C2CCC(CC2)C1Nc1cc(-c2ccco2)nc(-c2n[nH]c3ncc(Cl)cc23)n1 (racemic) [Example 1, (+/−)-trans-3-((2-(5-chloro-1H-pyrazolo[3,4-b]pyridin-3-yl)-6-(furan-2-yl)pyrimidin-4-yl)amino)bicyclo[2.2.2]octane-2-carboxylic Acid] | 10.23 | 
2 | O=C(O)C1C2CCC(CC2)C1Nc1nc(-c2n[nH]c3ncc(Cl)cc23)nc(-c2ccco2)c1F (racemic) [Example 2, (+/−)-trans-3-((2-(5-chloro-1H-pyrazolo[3,4-b]pyridin-3-yl)-5-fluoro-6-(furan-2-yl)pyrimidin-4-yl)amino)bicyclo[2.2.2]octane-2-carboxylic Acid] | 10.27 | AUC(0-inf) (in vivo; iv, 1 mg/kg): 910 ng·h/mL; AUC(0-t) (in vivo; iv, 1 mg/kg): 909 ng·h/mL; clearance (in vivo; iv, 1 mg/kg): 18.5 mL/min/kg; AUC(0-inf) (in vivo; po, 5 mg/kg): 1060 ng·h/mL; AUC(0-t) (in vivo; po, 5 mg/kg): 1060 ng·h/mL
3 | Cn1ccc2c(NC3C4CCC(CC4)C3C(=O)O)nc(-c3n[nH]c4ncc(Cl)cc34)nc21 (racemic) [Example 3, (+/−)-trans-3-((2-(5-chloro-1H-pyrazolo[3,4-b]pyridin-3-yl)-7-methyl-7H-pyrrolo[2,3-d]pyrimidin-4-yl)amino)bicyclo[2.2.2]octane-2-carboxylic Acid] | 9.41 | 
4 | O=C(O)C1C2CCC(CC2)C1Nc1cc(-c2cc3ccccc3o2)nc(-c2n[nH]c3ncc(Cl)cc23)n1 (racemic) [Example 14, (+/−)-trans-3-((6-(benzofuran-2-yl)-2-(5-chloro-1H-pyrazolo[3,4-b]pyridin-3-yl)pyrimidin-4-yl)amino)bicyclo[2.2.2]octane-2-carboxylic Acid] | 9.16 | 
5 | O=C(O)C1C2CCC(CC2)C1Nc1cc(-c2ccccc2)nc(-c2n[nH]c3ncc(Cl)cc23)n1 (racemic) [Example 16, (+/−)-trans-3-((2-(5-chloro-1H-pyrazolo[3,4-b]pyridin-3-yl)-6-phenylpyrimidin-4-yl)amino)bicyclo[2.2.2]octane-2-carboxylic Acid] | 9.85 | 
6 | O=C(O)C1C2CCC(CC2)C1Nc1cc(-c2cccs2)nc(-c2n[nH]c3ncc(Cl)cc23)n1 (racemic) [Example 29, (+/−)-trans-3-((2-(5-chloro-1H-pyrazolo[3,4-b]pyridin-3-yl)-6-(thiophen-2-yl)pyrimidin-4-yl)amino)bicyclo[2.2.2]octane-2-carboxylic Acid] | 9.69 | 
7 | O=C(O)C1C2CCC(CC2)C1Nc1cc(C2CC2)nc(-c2n[nH]c3ncc(Cl)cc23)n1 (racemic) [Example 30, (+/−)-trans-3-((2-(5-chloro-1H-pyrazolo[3,4-b]pyridin-3-yl)-6-cyclopropylpyrimidin-4-yl)amino)bicyclo[2.2.2]octane-2-carboxylic Acid] | 9.46 | 
8 | O=C(O)C1C2CCC(CC2)C1Nc1cc(-c2ccc3ccccc3c2)nc(-c2n[nH]c3ncc(Cl)cc23)n1 (racemic) [Example 31, (+/−)-trans-3-((2-(5-chloro-1H-pyrazolo[3,4-b]pyridin-3-yl)-6-(naphthalene-2-yl)pyrimidin-4-yl)amino)bicyclo[2.2.2]octane-2-carboxylic Acid] | 9.29 | 
9 | CC(C)(C)[C@@H](CC(=O)O)Nc1nc(-c2n[nH]c3ncc(Cl)cc23)nc(-c2ccco2)c1F [Example 4, (R)-3-((2-(5-chloro-1H-pyrazolo[3,4-b]pyridin-3-yl)-5-fluoro-6-(furan-2-yl)pyrimidin-4-yl)amino)-4,4-dimethylpentanoic Acid] | 10.12 | 
10 | O=C(O)[C@H]1C2CCC(CC2)[C@@H]1Nc1cc(-c2ccc(C3CC3)o2)nc(-c2n[nH]c3ncc(F)cc23)n1 [Example 15, (2S,3S)-3-((6-(5-cyclopropylfuran-2-yl)-2-(5-fluoro-1H-pyrazolo[3,4-b]pyridin-3-yl)pyrimidin-4-yl)amino)bicyclo[2.2.2]octane-2-carboxylic Acid] | 9.52 | 
11 | CC(C)n1ccc2c(N[C@H]3C4CCC(CC4)[C@@H]3C(=O)O)nc(-c3n[nH]c4ncc(F)cc34)nc21 [Example 34, (2S,3S)-3-((2-(5-fluoro-1H-pyrazolo[3,4-b]pyridin-3-yl)-7-isopropyl-7H-pyrrolo[2,3-d]pyrimidin-4-yl)amino)bicyclo[2.2.2]octane-2-carboxylic Acid] | 9.64 | 
